Assay results reported in PubChem BioAssay AID330 (DTP/NCI, 2004).
Where “and” joins values, the source holds several entries; their conditions need not be identical. Equal values may be shown once. Inconclusive results and toxic doses are left out.

Tested on: P388 leukemia ip, CD2F1 mice, survival T/C
Assay: NCI In Vivo Anticancer Drug Screen. Data for tumor model P388 Leukemia (intraperitoneal) in CD2F1 (CDF1) mice
Conditions: endpoint: median survival time, higher = longer survival
Summary of the method: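 Mice carrying the transplanted tumor received test compound or vehicle. Survival was recorded in each group, and the value is the treated-group measurement divided by that of the vehicle-treated control group.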

[1] = dose: 50.0 mg/kg/injection, schedule: Q01DX005 (ip), vehicle: Klucel (hydroxypropylcellulose) (HPC)
[2] = dose: 100.0 mg/kg/injection, schedule: Q01DX005 (ip), vehicle: Klucel (hydroxypropylcellulose) (HPC)
[3] = dose: 50.0 mg/kg/injection, schedule: Q01DX009 (ip), vehicle: Klucel (hydroxypropylcellulose) (HPC)
[4] = dose: 25.0 mg/kg/injection, schedule: Q01DX005 (ip), vehicle: Klucel (hydroxypropylcellulose) (HPC)
[5] = dose: 60.0 mg/kg/injection, schedule: Q01DX005 (ip), vehicle: saline with Tween-80
[6] = dose: 50.0 mg/kg/injection, schedule: Q01DX009 (ip), vehicle: saline
[7] = dose: 100.0 mg/kg/injection, schedule: Q01DX009 (ip), vehicle: saline
[8] = dose: 50.0 mg/kg/injection, schedule: Q01DX005 (ip), vehicle: saline with Tween-80
[9] = dose: 100.0 mg/kg/injection, schedule: Q01DX005 (ip), vehicle: saline with Tween-80
[10] = dose: 200.0 mg/kg/injection, schedule: Q01DX005 (ip), vehicle: saline with Tween-80
[11] = dose: 100.0 mg/kg/injection, schedule: Q01DX009 (ip), vehicle: saline with Tween-80
[12] = dose: 200.0 mg/kg/injection, schedule: Q01DX009 (ip), vehicle: saline with Tween-80
[13] = dose: 400.0 mg/kg/injection, schedule: Q01DX009 (ip), vehicle: saline with Tween-80
[14] = dose: 200.0 mg/kg/injection, schedule: Q01DX009 (ip), vehicle: saline

For `COc1ccccc1C1N(C)CCCN1C`, the T/C (dose: 6.25 mg/kg/injection, schedule: Q01DX009 (ip), vehicle: saline) was 95 % of control, the T/C (dose: 12.5 mg/kg/injection, schedule: Q01DX009 (ip), vehicle: saline) was 95 % of control and the T/C (dose: 25.0 mg/kg/injection, schedule: Q01DX009 (ip), vehicle: saline) was 100 % of control.

For `CC1(C)N=C(N)N=C(N)N1c1ccc(CCCCc2ccc(Cl)cc2Cl)cc1`, the T/C (dose: 3.13 mg/kg/injection, schedule: Q01DX009 (ip), vehicle: saline with Tween-80) was 118 % of control and the T/C (dose: 12.5 mg/kg/injection, schedule: Q01DX009 (ip), vehicle: saline with Tween-80) was 122 % of control.

`CC[n+]1ccc2c(C)c3[nH]c4ccc(O)cc4c3c(C)c2c1` was tested, and the T/C (dose: 1.56 mg/kg/injection, schedule: Q04DX003 (ip), vehicle: saline) was 165 % of control, the T/C (dose: 3.12 mg/kg/injection, schedule: Q04DX003 (ip), vehicle: saline) was 192 % of control and the T/C (dose: 6.25 mg/kg/injection, schedule: Q04DX003 (ip), vehicle: saline) was 171 % of control and 223 % of control. For the same compound, the T/C (dose: 12.5 mg/kg/injection, schedule: Q04DX003 (ip), vehicle: saline) was 103 % of control and 90 % of control, the T/C (dose: 25.0 mg/kg/injection, schedule: Q04DX003 (ip), vehicle: saline) was 90 % of control and the T/C (dose: 50.0 mg/kg/injection, schedule: Q04DX003 (ip), vehicle: saline) was 90 % of control.

In the case of `COc1cc2ccccc2c2cc([N+](=O)[O-])oc12`, the T/C [1] is reported as 110 % of control, the T/C [2] is reported as 101 % of control and the T/C (dose: 200.0 mg/kg/injection, schedule: Q01DX005 (ip), vehicle: Klucel (hydroxypropylcellulose) (HPC)) is reported as 110 % of control.

With `CSc1cccc(NC(=O)Nc2onc(C)c2C)c1` the T/C [3] was 91 % of control.

`O=C(O)c1cc(-c2ccc(Cl)cc2)nc2c1ccc1ccccc12` was tested, and the T/C [4] was 100 % of control, the T/C [1] was 100 % of control and the T/C [2] was 100 % of control.

For `COc1ccc(C2=C(Cl)C(=O)N(c3ccccc3C)C(=O)C2(Cl)Cl)cc1`, the T/C (dose: 100.0 mg/kg/injection, schedule: Q04DX002 (ip), vehicle: Klucel (hydroxypropylcellulose) (HPC)) was 101 % of control, the T/C (dose: 200.0 mg/kg/injection, schedule: Q04DX002 (ip), vehicle: Klucel (hydroxypropylcellulose) (HPC)) was 112 % of control and the T/C (dose: 400.0 mg/kg/injection, schedule: Q04DX002 (ip), vehicle: Klucel (hydroxypropylcellulose) (HPC)) was 117 % of control.

`COC(=O)c1ccc(N)c2c(N)ccc(C(=O)OC)c12` was tested, and the T/C [5] was 98 % of control, the T/C (dose: 120.0 mg/kg/injection, schedule: Q01DX005 (ip), vehicle: saline with Tween-80) was 114 % of control and the T/C (dose: 240.0 mg/kg/injection, schedule: Q01DX005 (ip), vehicle: saline with Tween-80) was 97 % of control.

For `[Cl][Pt+2][Cl].[NH-]c1ccc(S(=O)(=O)O)cc1[NH-]`, the T/C (dose: 6.25 mg/kg/injection, schedule: Q04DX002 (ip), vehicle: saline with Tween-80) was 102 % of control, the T/C (dose: 12.5 mg/kg/injection, schedule: Q04DX002 (ip), vehicle: saline with Tween-80) was 111 % of control and the T/C (dose: 25.0 mg/kg/injection, schedule: Q04DX002 (ip), vehicle: saline with Tween-80) was 119 % of control. For the same compound, the T/C (dose: 50.0 mg/kg/injection, schedule: Q04DX002 (ip), vehicle: saline with Tween-80) was 124 % of control.

With `Cc1nc(Cl)c(C)c(=O)[nH]1` the T/C [6] was 165 % of control and the T/C [7] was 166 % of control.

`CCCCN1CS[C@@H]2CCCC[C@H]21` was tested, and the T/C (dose: 21.0 mg/kg/injection, schedule: Q01DX005 (ip), vehicle: Klucel (hydroxypropylcellulose) (HPC)) was 104 % of control, the T/C (dose: 42.0 mg/kg/injection, schedule: Q01DX005 (ip), vehicle: Klucel (hydroxypropylcellulose) (HPC)) was 113 % of control and the T/C (dose: 84.0 mg/kg/injection, schedule: Q01DX005 (ip), vehicle: Klucel (hydroxypropylcellulose) (HPC)) was 116 % of control.

`CCCCOCN(CC(CC)CCCC)CC(CC)CCCC` (stereo not given) was tested, and the T/C [8] was 98 % of control, the T/C [9] was 100 % of control and the T/C [10] was 104 % of control.

In the case of `O=c1c2ccccc2nc(/C=N/NC(=S)Nc2ccc(Cl)cc2)n1-c1ccc(Br)cc1`, the T/C (dose: 100.0 mg/kg/injection, schedule: Q04DX002 (ip), vehicle: saline with Tween-80) is reported as 96 % of control and the T/C (dose: 200.0 mg/kg/injection, schedule: Q04DX002 (ip), vehicle: saline with Tween-80) is reported as 88 % of control.

`CCCOc1ccc(C(N)=S)cc1` was tested, and the T/C (dose: 12.5 mg/kg/injection, schedule: Q01DX009 (ip), vehicle: Klucel (hydroxypropylcellulose) (HPC)) was 98 % of control and 103 % of control, the T/C (dose: 25.0 mg/kg/injection, schedule: Q01DX009 (ip), vehicle: Klucel (hydroxypropylcellulose) (HPC)) was 101 % of control and 105 % of control and the T/C [3] was 115 % of control and 120 % of control and 96 % of control. For the same compound, the T/C (dose: 100.0 mg/kg/injection, schedule: Q01DX009 (ip), vehicle: Klucel (hydroxypropylcellulose) (HPC)) was 86 % of control.

With `COC(=N)c1nc2c(N)nc(-c3ccccc3)nc2[nH]c1=O` the T/C [11] was 98 % of control, the T/C [12] was 98 % of control and the T/C [13] was 97 % of control.

With `CC1OC2COC(C)OC2C(C2CN2)O1` (stereo not given) the T/C [6] was 110 % of control, the T/C [7] was 100 % of control and the T/C [14] was 117 % of control.

In the case of `CCc1nc(N)nc(N)c1-c1ccc(N2CCOCC2)c(N=[N+]=[N-])c1`, the T/C (dose: 6.25 mg/kg/injection, schedule: Q01DX005 (ip), vehicle: Klucel (hydroxypropylcellulose) (HPC)) is reported as 101 % of control, the T/C (dose: 12.5 mg/kg/injection, schedule: Q01DX005 (ip), vehicle: Klucel (hydroxypropylcellulose) (HPC)) is reported as 100 % of control and the T/C [4] is reported as 97 % of control.

For `CC(C)(O)C1COC2=C1C(=O)c1ccccc1C2=O` (stereo not given), the T/C (dose: 50.0 mg/kg/injection, schedule: Q01DX009 (ip), vehicle: other) was 94 % of control and the T/C (dose: 100.0 mg/kg/injection, schedule: Q01DX009 (ip), vehicle: other) was 107 % of control.

For `COC1=C(N2CC2)C(=O)C(OC)=C(N2CC2)C1=O`, the T/C (dose: 4.0 mg/kg/injection, schedule: Q04DX003 (ip), vehicle: saline with Tween-80) was 159 % of control.

With `CC1(C)NC(=O)NC(=O)C1Br` (stereo not given) the T/C [8] was 99 % of control, the T/C [9] was 102 % of control and the T/C [10] was 103 % of control.

For `CCC(=O)N=c1sc(SCc2ccccc2)nn1C(=O)SC` (tested in a mixture with another compound), the T/C (dose: 60.0 mg/kg/injection, schedule: Q01DX005 (ip), vehicle: Klucel (hydroxypropylcellulose) (HPC)) was 95 % of control, the T/C (dose: 120.0 mg/kg/injection, schedule: Q01DX005 (ip), vehicle: Klucel (hydroxypropylcellulose) (HPC)) was 98 % of control and the T/C (dose: 240.0 mg/kg/injection, schedule: Q01DX005 (ip), vehicle: Klucel (hydroxypropylcellulose) (HPC)) was 90 % of control.

With `N#C/C=C1\NC(=O)CS1` the T/C (dose: 50.0 mg/kg/injection, schedule: Q01DX009 (ip), vehicle: saline with Tween-80) was 95 % of control, the T/C [11] was 100 % of control and the T/C [12] was 95 % of control.

With `CCCCCCCCC1SC1CCCCCCCC(=O)OCCOCCOCC` (stereo not given) the T/C [11] was 104 % of control, the T/C [12] was 104 % of control and the T/C [13] was 100 % of control.

In the case of `CC(C)(C)SC(=S)SCC(=O)c1cc2ccccc2o1`, the T/C [8] is reported as 100 % of control, the T/C [9] is reported as 93 % of control and the T/C [10] is reported as 93 % of control.

In the case of `COCCCNS(=O)(=O)c1ncnc2nc[nH]c12`, the T/C [7] is reported as 104 % of control, the T/C (dose: 100.0 mg/kg/injection, schedule: Q04DX003 (ip), vehicle: saline with Tween-80) is reported as 108 % of control and the T/C [14] is reported as 100 % of control. The T/C (dose: 400.0 mg/kg/injection, schedule: Q01DX009 (ip), vehicle: saline) was 86 % of control and the T/C (dose: 400.0 mg/kg/injection, schedule: Q04DX003 (ip), vehicle: saline with Tween-80) was 108 % of control.

In the case of `Nc1ccc(C(=O)Nc2ccc(C(=O)Nc3ccc4cc(S(=O)(=O)O)cc(S(=O)(=O)O)c4c3)cc2)cc1`, the T/C (dose: 50.0 mg/kg/injection, schedule: Q01DX005 (ip), vehicle: saline) is reported as 103 % of control, the T/C (dose: 100.0 mg/kg/injection, schedule: Q01DX005 (ip), vehicle: saline) is reported as 103 % of control and the T/C (dose: 200.0 mg/kg/injection, schedule: Q01DX005 (ip), vehicle: saline) is reported as 103 % of control.

For `CCOc1cc2c(cc1C/C=C/c1cc(OC)c(OC)c(OC)c1)OCO2`, the T/C (dose: 15.0 mg/kg/injection, schedule: Q01DX005 (ip), vehicle: saline with Tween-80) was 94 % of control, the T/C (dose: 30.0 mg/kg/injection, schedule: Q01DX005 (ip), vehicle: saline with Tween-80) was 95 % of control and the T/C [5] was 95 % of control.
